GI50 data for 13 compounds are collected here from patent publication US12215100B2, “Anticancer compounds” (Pharma Mar, S.A., priority 2018, dated 2025).

What is called GI50 is the concentration at which growth is held to half of that of the control.

Common to all, as to type: cell-based, human
Test [1] relates to PSN-1. Put plainly: SRB colorimetric cytotoxicity assay, PSN-1. Conditions: 72 hours treatment, pancreatic adenocarcinoma. From the text: (§1) The aim of this assay is to evaluate the in vitro cytostatic (ability to delay or arrest tumor cell growth) or cytotoxic (ability to kill tumor cells) activity of the samples being tested.
(§2) A colorimetric assay, using sulforhodamine B (SRB) reaction has been adapted to provide a quantitative measurement of cell growth and viability (following the technique described by V. Vichai and K. Kirtikara (2006) Nature Protoc. 1, 1112-1116.)
(§3) This form of assay employs 96-well cell culture microplates. All the cell lines used in this study were obtained from the American Type Culture Collection (ATCC), unless otherwise indicated, and derive from different types of human cancer.
(§4) Cells were maintained in Dulbecco's Modified Eagle Medium (DMEM) (for A549, HT-29 and MDA-MB-231) or RPMI (for PSN-1) supplemented with 10% Fetal Bovine Serum (FBS), 2 mM L-glutamine, 100 U/mL penicillin and 100 U/mL streptomycin at 37° C., 5% CO2 and 98% humidity. For the experiments, cells were harvested from subconfluent cultures using trypsinization and resuspended in fresh medium before counting and plating.
(§5) Cells were seeded in 96 well microtiter plates, at 5×10^3 cells per well in aliquots of 150 μL, and allowed to attach to the plate surface for 18 hours (overnight) in drug free medium. After that, one control (untreated) plate of each cell line was fixed (as described below) and used for time zero reference value. […] After 72 hours treatment, the antitumor effect was measured by using the SRB methodology: Briefly, cells were washed twice with PBS, fixed for 15 min in 1% glutaraldehyde solution at room temperature, rinsed twice in PBS, and stained in 0.4% SRB solution for 30 min at room temperature. Cells were then rinsed several times with 1% acetic acid solution and air-dried at room temperature. SRB was then extracted in 10 mM trizma base solution and the absorbance measured in an automated spectrophotometric plate reader at 490 nm. Effects on cell growth and survival were estimated by applying the NCI algorithm (Boyd M R and Pauli K D. Drug Dev Res. 1995, 34, 91-104).
(§6) Using the mean±SD of triplicates, a dose-response curve was automatically generated using nonlinear regression analysis to a 4-parameter logistic curve. Three reference parameters were calculated (NCI algorithm) by automatic interpolation: GI50=compound concentration that produces 50% cell growth inhibition, as compared to control cultures; TGI=total cell growth inhibition (cytostatic effect), as compared to control cultures, and LC50=compound concentration that produces 50% net cell killing (cytotoxic effect).

For test [2], the system named is A549. Put plainly: SRB colorimetric cytotoxicity assay, A549. Particulars: 72 hours treatment, lung carcinoma (NSCLC).
Text: as §1, §2, §3, §4, §5, §6

Test [3] deals with MDA-MB-231. Put plainly: SRB colorimetric cytotoxicity assay, MDA-MB-231. Particulars: 72 hours treatment, breast adenocarcinoma.
Text: as §1, §2, §3, §4, §5, §6

In test [4] the test system is HT29. Kind of test: SRB colorimetric cytotoxicity assay, HT29. Conditions: 72 hours treatment, colorectal adenocarcinoma.
Text: as §1, §2, §3, §4, §5, §6

As to `CCC[C@@H](NC(=O)[C@]1(C)CSC(/C(C)=N/OCCOCCOCCOCC)=N1)c1cc(OC)cc(=O)o1` [Compound 96], the concentration for 50% growth inhibition (GI50) stood at 2220 nM in test [1] (Homo sapiens, PSN1, 72 h); 1770 nM in test [2] (Homo sapiens, A549, 72 h); 2950 nM in test [3] (Homo sapiens, MDA-MB-231, 72 h); 1510 nM in test [4] (Homo sapiens, HT-29, 72 h).
In the case of `C=CCOc1cc([C@@H](CCC)NC(=O)[C@]2(C)CSC(/C(C)=N/OCCCN)=N2)oc(=O)c1` (stereo in doubt) [Compound 153], the GI50 in test [1] (Homo sapiens, PSN1, 72 h) worked out at 3.98 nM; in test [2] (Homo sapiens, A549, 72 h), 3.98 nM; in test [3] (Homo sapiens, MDA-MB-231, 72 h) it was 4.32 nM; in test [4] (Homo sapiens, HT-29, 72 h), 3.38 nM.
For `CCCCCCCCCCCCCCCCCOc1cc([C@@H](CCC)NC(=O)[C@]2(C)CSC(/C(C)=N/O)=N2)oc(=O)c1` [Compound 73], the GI50 is 347 nM in test [1] (Homo sapiens, PSN1, 72 h); 380 nM in test [2] (Homo sapiens, A549, 72 h); 330 nM in test [3] (Homo sapiens, MDA-MB-231, 72 h); 396 nM in test [4] (Homo sapiens, HT-29, 72 h).
For `CCC[C@@H](NC(=O)[C@]1(C)CSC(/C(C)=N/O)=N1)c1cc(OCCCN)cc(=O)o1` [Compound 89], the concentration for 50% growth inhibition (GI50) in test [1] (Homo sapiens, PSN1, 72 h) is 6360 nM; in test [2] (Homo sapiens, A549, 72 h), 16500 nM; in test [3] (Homo sapiens, MDA-MB-231, 72 h) it was 5890 nM; in test [4] (Homo sapiens, HT-29, 72 h) it was 8950 nM.
On to `C=CCOc1cc([C@@H](CCC)NC(=O)[C@]2(C)CSC(/C(C)=N/OCCCN)=N2)oc(=O)c1` (stereo in doubt) [Compound 154], for which the GI50 in test [1] amounted to 7.78 nM; in test [2], 4.79 nM; in test [3], 6.79 nM; in test [4] it was 5.59 nM.
Consider `CCC[C@@H](NC(=O)[C@]1(C)CSC(C(C)=O)=N1)c1cc(OCC2CC2)cc(=O)o1` [Compound 65], for which the GI50 in test [1] (Homo sapiens, PSN1, 72 h) amounted to 1250 nM; in test [2] (Homo sapiens, A549, 72 h), 1890 nM; in test [3] (Homo sapiens, MDA-MB-231, 72 h), 1030 nM; in test [4] (Homo sapiens, HT-29, 72 h), 1080 nM.
The like results for `CCC[C@@H](NC(=O)[C@]1(C)CSC(/C(C)=N/OC)=N1)c1cc(OC)cc(=O)o1` [Compound 2] were, in that order, 329 nM, 253 nM, 430 nM and 212 nM.
The corresponding values for `C#CCOc1cc([C@@H](CCC)NC(=O)[C@]2(C)CSC(C(C)=O)=N2)oc(=O)c1` [Compound 64] are 71.7 nM, 99.9 nM, 53.8 nM and 61.5 nM.
The like results for `COc1cc([C@@H](CCC(F)(F)F)NC(=O)[C@]2(C)CSC(/C(C)=N/O)=N2)oc(=O)c1` [Compound 140] were, in that order, 643 nM, 666 nM, 459 nM and 344 nM.
As to `COc1cc([C@@H](CC(C)C)NC(=O)[C@]2(C)CSC(/C(C)=N/O)=N2)oc(=O)c1` [Compound 69], the 50% growth inhibitory concentration (GI50) turned out to be 1520 nM in test [1] (Homo sapiens, PSN1, 72 h); 2200 nM in test [2] (Homo sapiens, A549, 72 h); 1620 nM in test [3] (Homo sapiens, MDA-MB-231, 72 h); 1590 nM in test [4] (Homo sapiens, HT-29, 72 h).
With `CCCCOc1cc([C@@H](CCC)NC(=O)[C@]2(C)CSC(/C(C)=N\O)=N2)oc(=O)c1` [Compound 71a], the GI50 in test [1] (Homo sapiens, PSN1, 72 h) came out at 30.7 nM; in test [2] (Homo sapiens, A549, 72 h), 16.5 nM; in test [3] (Homo sapiens, MDA-MB-231, 72 h), 35.4 nM; in test [4] (Homo sapiens, HT-29, 72 h), 17 nM.
Consider `C#CCO/N=C(\C)C1=N[C@](C)(C(=O)N[C@H](CCC)c2cc(OC)cc(=O)o2)CS1` [Compound 94], for which the GI50 in test [1] (Homo sapiens, PSN1, 72 h) was 35.8 nM; in test [2] (Homo sapiens, A549, 72 h) it was 35.8 nM; in test [3] (Homo sapiens, MDA-MB-231, 72 h) it was 35.8 nM; in test [4] (Homo sapiens, HT-29, 72 h), 22.6 nM.
Consider `CCC[C@@H](NC(=O)[C@]1(C)CSC(/C(C)=N/OCCCNC(=O)OC(C)(C)C)=N1)c1cc(OC)cc(=O)o1` [Compound 97], for which the GI50 in test [1] (Homo sapiens, PSN1, 72 h) came out at 835 nM; in test [2] (Homo sapiens, A549, 72 h) it was 631 nM; in test [3] (Homo sapiens, MDA-MB-231, 72 h), 1150 nM; in test [4] (Homo sapiens, HT-29, 72 h), 594 nM.
